In article PMC4697445 (Journal of medicinal chemistry, 2015):

Legend:
[1] = Biodistribution in rats; assay type: in vivo, male Sprague-Dawley rats; details: rat; for in vivo metabolic defluorination (bone activity): 5 to 60 min p.i.; for blood uptake / bone uptake / brain uptake / fat uptake / kidney uptake / liver uptake / muscle uptake: iv, mean ± SD, n = 4
[2] = target: PDE10A (Rattus norvegicus, UniProt Q9QYJ6); details: by 30 min p.i.
Chain of PDE10A (Q9QYJ6 whole entry): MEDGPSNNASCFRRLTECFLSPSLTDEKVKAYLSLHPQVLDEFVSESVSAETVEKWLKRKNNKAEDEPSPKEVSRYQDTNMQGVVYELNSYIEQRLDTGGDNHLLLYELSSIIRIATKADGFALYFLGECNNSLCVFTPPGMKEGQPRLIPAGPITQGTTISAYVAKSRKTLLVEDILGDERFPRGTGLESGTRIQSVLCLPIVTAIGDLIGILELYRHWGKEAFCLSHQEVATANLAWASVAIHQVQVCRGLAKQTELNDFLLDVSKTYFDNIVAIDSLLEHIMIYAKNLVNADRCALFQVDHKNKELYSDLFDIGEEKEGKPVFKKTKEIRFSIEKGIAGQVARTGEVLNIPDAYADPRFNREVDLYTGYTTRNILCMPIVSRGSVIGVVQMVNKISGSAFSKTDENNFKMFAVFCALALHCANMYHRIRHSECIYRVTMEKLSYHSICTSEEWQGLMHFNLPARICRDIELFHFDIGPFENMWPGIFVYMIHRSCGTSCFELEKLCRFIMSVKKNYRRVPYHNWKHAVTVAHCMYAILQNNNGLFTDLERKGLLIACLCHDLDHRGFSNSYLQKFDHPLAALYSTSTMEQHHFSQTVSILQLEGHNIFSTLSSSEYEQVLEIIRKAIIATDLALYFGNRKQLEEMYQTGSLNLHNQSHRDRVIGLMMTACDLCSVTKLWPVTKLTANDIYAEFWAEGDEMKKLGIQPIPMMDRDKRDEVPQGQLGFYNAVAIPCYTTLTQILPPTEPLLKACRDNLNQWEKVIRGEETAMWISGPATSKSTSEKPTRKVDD

blood uptake ([1]; 5 min p.i.) [%ID/g] | bone uptake ([1]; 5 min p.i.) [%ID/g] | brain uptake ([1]; 5 min p.i.) [%ID/g] | fat uptake ([1]; 5 min p.i.) [%ID/g] | kidney uptake ([1]; 5 min p.i.) [%ID/g] | liver uptake ([1]; 5 min p.i.) [%ID/g] | muscle uptake ([1]; 5 min p.i.) [%ID/g] | bone uptake ([1]; 30 min p.i.) [%ID/g] | brain uptake ([1]; 30 min p.i.) [%ID/g] | fat uptake ([1]; 30 min p.i.) [%ID/g] | kidney uptake ([1]; 30 min p.i.) [%ID/g] | liver uptake ([1]; 30 min p.i.) [%ID/g] | muscle uptake ([1]; 30 min p.i.) [%ID/g] | bone uptake ([1]; 60 min p.i.) [%ID/g] | brain uptake ([1]; 60 min p.i.) [%ID/g] | fat uptake ([1]; 60 min p.i.) [%ID/g] | kidney uptake ([1]; 60 min p.i.) [%ID/g] | liver uptake ([1]; 60 min p.i.) [%ID/g] | muscle uptake ([1]; 60 min p.i.) [%ID/g] | Compound | in vivo metabolic defluorination (bone activity) [1] | other results
– | – | – | – | – | – | – | – | – | – | – | – | – | – | – | – | – | – | – | Cn1cc(-c2ccncc2)c(-c2ccc(OCc3cc(F)c4ccccc4n3)cc2)n1 [Compound 18a, 4-Fluoro-2-((4-(1-methyl-4-(pyridin-4-yl)-1H-pyrazol-3-yl)-phenoxy)methyl)quinoline] | undergo in vivo metabolic defluorination in rodents | –
0.440 ± 0.038 | 0.133 ± 0.028 | 0.213 ± 0.039 | 0.139 ± 0.031 | 0.981 ± 0.163 | 3.99 ± 0.82 | 0.155 ± 0.040 | 0.170 ± 0.030 | 0.353 ± 0.021 | 0.139 ± 0.037 | 0.632 ± 0.123 | 0.987 ± 0.038 | 0.265 ± 0.117 | 0.337 ± 0.072 | 0.343 ± 0.033 | 0.066 ± 0.018 | 0.485 ± 0.045 | 0.554 ± 0.064 | 0.228 ± 0.058 | Cn1cc(-c2ccncc2)c(-c2ccc(OCc3cc(COCC[18F])c4ccccc4n3)cc2)n1 [[^18F]18e, 4-((2-(Fluoro-^18F)ethoxy)methyl)-2-((4-(1-methyl-4-(pyridin-4-yl)-1H-pyrazol-3-yl)phenoxy)methyl)quinoline] | appeared more stable to in vivo defluorination | blood uptake ([1]; 30 min p.i.): 0.424 ± 0.074 %ID/g; blood uptake ([1]; 60 min p.i.): 0.401 ± 0.029 %ID/g
0.459 ± 0.049 | 0.222 ± 0.014 | 0.114 ± 0.015 | 0.220 ± 0.100 | 2.471 ± 0.487 | 9.99 ± 1.27 | 0.223 ± 0.067 | 1.418 ± 0.182 | 0.046 ± 0.006 | 0.491 ± 0.035 | 1.364 ± 0.077 | 5.67 ± 0.73 | 0.178 ± 0.016 | 2.037 ± 0.303 | 0.026 ± 0.005 | 0.368 ± 0.077 | 1.216 ± 0.180 | 6.79 ± 2.49 | 0.103 ± 0.030 | Cn1cc(-c2ccncc2)c(-c2ccc(OCc3cc(CCC[18F])c4ccccc4n3)cc2)n1 [[^18F]18c, 4-(3-(Fluoro-^18F)propyl)-2-((4-(1-methyl-4-(pyridin-4-yl)-1H-pyrazol-3-yl)phenoxy)methyl) quinoline] | – | ratio of activity in the striatum versus nontarget brain regions [2]: > 2 fold
0.471 ± 0.040 | 0.421 ± 0.063 | 0.128 ± 0.012 | 0.343 ± 0.153 | 1.799 ± 0.207 | 10.16 ± 1.86 | 0.227 ± 0.042 | 4.055 ± 1.305 | 0.094 ± 0.023 | 0.352 ± 0.081 | 1.351 ± 0.216 | 4.01 ± 1.34 | 0.174 ± 0.042 | 5.620 ± 1.132 | 0.069 ± 0.008 | 0.222 ± 0.029 | 0.573 ± 0.134 | 3.10 ± 0.61 | 0.107 ± 0.032 | Cn1cc(-c2ccncc2)c(-c2ccc(OCc3cc(C[18F])c4ccccc4n3)cc2)n1 [[^18F]18b, 4-((Fluoro-^18F)methyl)-2-((4-(1-methyl-4-(pyridin-4-yl)-1H-pyrazol-3-yl)phenoxy)methyl) quinoline] | – | ratio of activity in the striatum versus nontarget brain regions [2]: > 2 fold; blood uptake ([1]; 30 min p.i.): 0.416 ± 0.062 %ID/g; blood uptake ([1]; 60 min p.i.): 0.201 ± 0.026 %ID/g
– | – | – | – | – | – | – | – | – | – | – | – | – | – | – | – | – | – | – | Cn1cc(-c2ccncc2)c(-c2ccc(OCc3cc(CCCF)c4ccccc4n3)cc2)n1 [Compound 18c, 4-(3-Fluoropropyl)-2-((4-(1-methyl-4-(pyridin-4-yl)-1H-pyrazol-3-yl)phenoxy)methyl) quinoline] | undergo in vivo metabolic defluorination in rodents | –
0.353 ± 0.063 | 0.522 ± 0.116 | 0.410 ± 0.063 | 0.404 ± 0.102 | 1.887 ± 0.296 | 6.87 ± 1.27 | 0.339 ± 0.053 | 4.035 ± 0.153 | 0.191 ± 0.036 | 0.576 ± 0.154 | 1.034 ± 0.131 | 3.00 ± 0.91 | 0.236 ± 0.019 | 6.300 ± 0.314 | 0.125 ± 0.009 | 0.477 ± 0.099 | 0.533 ± 0.119 | 1.60 ± 0.87 | 0.092 ± 0.010 | Cn1cc(-c2ccncc2)c(-c2ccc(OCc3cc([18F])c4ccccc4n3)cc2)n1 [[^18F]18a, 4-(Fluoro-^18F)-2-((4-(1-methyl-4-(pyridin-4-yl)-1H-pyrazol-3-yl)phenoxy)methyl)quinoline] | – | ratio of activity in the striatum versus nontarget brain regions [2]: > 2 fold; blood uptake ([1]; 30 min p.i.): 0.376 ± 0.033 %ID/g; blood uptake ([1]; 60 min p.i.): 0.150 ± 0.021 %ID/g
– | – | – | – | – | – | – | – | – | – | – | – | – | – | – | – | – | – | – | Cn1cc(-c2ccncc2)c(-c2ccc(OCc3cc(CF)c4ccccc4n3)cc2)n1 [Compound 18b, 4-(Fluoromethyl)-2-((4-(1-methyl-4-(pyridin-4-yl)-1H-pyrazol-3-yl)phenoxy)methyl) quinoline] | undergo in vivo metabolic defluorination in rodents | –

Compound | blood uptake ([1]; 5 min p.i.) [%ID/g] | bone uptake ([1]; 5 min p.i.) [%ID/g] | brain uptake ([1]; 5 min p.i.) [%ID/g] | fat uptake ([1]; 5 min p.i.) [%ID/g] | kidney uptake ([1]; 5 min p.i.) [%ID/g] | liver uptake ([1]; 5 min p.i.) [%ID/g] | muscle uptake ([1]; 5 min p.i.) [%ID/g] | bone uptake ([1]; 30 min p.i.) [%ID/g] | brain uptake ([1]; 30 min p.i.) [%ID/g] | fat uptake ([1]; 30 min p.i.) [%ID/g] | kidney uptake ([1]; 30 min p.i.) [%ID/g] | liver uptake ([1]; 30 min p.i.) [%ID/g] | muscle uptake ([1]; 30 min p.i.) [%ID/g] | bone uptake ([1]; 60 min p.i.) [%ID/g] | brain uptake ([1]; 60 min p.i.) [%ID/g] | fat uptake ([1]; 60 min p.i.) [%ID/g] | kidney uptake ([1]; 60 min p.i.) [%ID/g] | liver uptake ([1]; 60 min p.i.) [%ID/g] | muscle uptake ([1]; 60 min p.i.) [%ID/g] | in vivo metabolic defluorination (bone activity) [1] | other results
Cn1cc(-c2ccncc2)c(-c2ccc(OCc3cc(OCCOCCOCC[18F])c4ccccc4n3)cc2)n1 [[^18F]18g] | 0.699 ± 0.090 | 0.487 ± 0.044 | 0.353 ± 0.052 | 0.225 ± 0.086 | 5.969 ± 0.744 | 4.74 ± 1.10 | 0.419 ± 0.090 | 0.441 ± 0.049 | 0.509 ± 0.038 | 0.254 ± 0.051 | 1.793 ± 0.291 | 1.53 ± 0.49 | 0.488 ± 0.086 | 0.490 ± 0.035 | 0.421 ± 0.028 | 0.123 ± 0.021 | 1.037 ± 0.170 | 0.527 ± 0.068 | 0.379 ± 0.027 | appeared more stable to in vivo defluorination | blood uptake ([1]; 30 min p.i.): 0.771 ± 0.061 %ID/g; blood uptake ([1]; 60 min p.i.): 0.646 ± 0.045 %ID/g
